Target: T1, FLK-1 receptor (Mus musculus, UniProt P35918)
T1 construct: expressed in transfected cells; host or cells: NIH3T3 C7#3
Test: FLK-1 ELISA (kinase activity of the FLK-1 receptor in FLK-1/NIH3T3 cells, VEGF stimulated)
Assay type: cell-based
Set-up: concentration or dose not given beside the values
Procedure, shortened: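 NIH3T3 C7#3 cells expressing FLK-1 were seeded at 25.000 cells/well, serum-starved overnight in 0.1% FBS, then treated with compound for two hours at 37°C (final DMSO 0.5%) before VEGF stimulation. Receptor was captured on anti-rabbit IgG-coated ELISA plates bearing affinity-purified anti-FLK-1 antiserum.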

T1 sequence (P35918 20-1345): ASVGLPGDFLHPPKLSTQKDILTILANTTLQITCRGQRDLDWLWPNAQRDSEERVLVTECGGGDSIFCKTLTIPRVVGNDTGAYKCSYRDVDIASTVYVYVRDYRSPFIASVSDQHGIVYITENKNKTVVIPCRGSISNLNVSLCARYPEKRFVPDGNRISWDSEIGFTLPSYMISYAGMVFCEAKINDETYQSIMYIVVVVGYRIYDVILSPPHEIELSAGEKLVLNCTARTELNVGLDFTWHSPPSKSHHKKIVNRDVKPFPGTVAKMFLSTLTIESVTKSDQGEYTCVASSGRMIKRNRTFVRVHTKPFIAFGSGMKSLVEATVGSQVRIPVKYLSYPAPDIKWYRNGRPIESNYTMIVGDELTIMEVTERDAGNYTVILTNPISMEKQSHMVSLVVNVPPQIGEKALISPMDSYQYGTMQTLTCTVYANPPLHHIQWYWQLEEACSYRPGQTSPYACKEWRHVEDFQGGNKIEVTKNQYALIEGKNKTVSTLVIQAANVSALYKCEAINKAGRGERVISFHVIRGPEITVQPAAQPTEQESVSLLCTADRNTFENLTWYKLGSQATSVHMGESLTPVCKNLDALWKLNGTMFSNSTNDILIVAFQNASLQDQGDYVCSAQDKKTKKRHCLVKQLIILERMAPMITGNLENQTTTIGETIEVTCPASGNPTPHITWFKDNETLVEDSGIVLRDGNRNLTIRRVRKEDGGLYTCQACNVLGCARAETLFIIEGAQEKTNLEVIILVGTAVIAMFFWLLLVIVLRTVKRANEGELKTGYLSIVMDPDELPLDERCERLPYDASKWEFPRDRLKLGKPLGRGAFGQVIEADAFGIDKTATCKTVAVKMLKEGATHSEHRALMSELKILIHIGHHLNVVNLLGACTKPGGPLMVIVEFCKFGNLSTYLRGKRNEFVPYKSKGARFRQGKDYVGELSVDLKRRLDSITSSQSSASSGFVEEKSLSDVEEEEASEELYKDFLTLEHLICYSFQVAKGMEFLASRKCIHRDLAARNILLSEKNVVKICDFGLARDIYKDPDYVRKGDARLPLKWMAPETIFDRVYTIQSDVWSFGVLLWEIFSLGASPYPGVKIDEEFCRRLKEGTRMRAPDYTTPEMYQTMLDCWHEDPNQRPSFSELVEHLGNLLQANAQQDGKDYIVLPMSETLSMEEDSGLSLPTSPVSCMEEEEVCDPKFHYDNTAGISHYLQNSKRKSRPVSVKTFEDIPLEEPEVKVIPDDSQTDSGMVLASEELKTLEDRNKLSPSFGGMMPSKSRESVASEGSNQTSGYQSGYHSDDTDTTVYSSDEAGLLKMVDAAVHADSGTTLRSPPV

| Structure (SMILES) | Fik Kinase %Inhibition |
| --- | --- |
| CNS(=O)(=O)c1ccc2c(c1)C(=Cc1ccc(OC)cc1O)C(=O)N2 [10723/D09] | 50.4% |
| O=C1Nc2ccc(S(=O)(=O)Nc3ccc(C(F)(F)F)cc3)cc2C1=Cc1cccc(Br)c1 [10723/E10] | 5.2% |
| CNS(=O)(=O)c1ccc2c(c1)C(=Cc1cccc(OC)c1O)C(=O)N2 [10723/D03] | -14.7% |
| CNS(=O)(=O)c1ccc2c(c1)C(=Cc1ccc(O)c(C)c1)C(=O)N2 [10723/D06] | 17.6% |
| O=C1Nc2ccc(I)cc2C1=Cc1cc(O)c(O)c(Br)c1 [10723/B04] | 18.7% |
| COc1cccc(C=C2C(=O)Nc3ccc(Br)c(C)c32)c1O [10723/C03] | -3.1% |
| Cc1c(Br)ccc2c1C(=Cc1cccc(Br)c1)C(=O)N2 [10723/C10] | 9.5% |
| COc1ccc(C=C2C(=O)Nc3ccc(I)cc32)c(O)c1 [10723/B09] | 2.7% |
| COc1cccc(C=C2C(=O)Nc3c(Br)cc(Br)cc32)c1O [10723/A03] | 1.2% |
| CC(=O)Oc1ccc(C=C2C(=O)Nc3ccc(S(=O)(=O)N4CCOCC4)cc32)cc1OC(C)=O [10723/F05] | -6.4% |
| O=C1Nc2c(Br)cc(Br)cc2C1=Cc1ccc(O)cc1O [10723/A08] | -12.9% |
| CCOc1ccccc1C=C1C(=O)Nc2ccc(S(=O)(=O)Nc3ccc(C(F)(F)F)cc3)cc21 [10717/E02] | 17.9% |
| O=C1Nc2ccc(S(=O)(=O)Nc3ccc(C(F)(F)F)cc3)cc2C1=Cc1ccc(O)c(O)c1O [10723/E02] | 8.1% |
| O=C1Nc2c(Br)cc(Br)cc2C1=Cc1cccc(Br)c1 [10723/A10] | -3.1% |
| CC(C)(C)c1cc(C=C2C(=O)Nc3ccc(I)cc32)c(O)c(C(C)(C)C)c1 [10723/B11] | 6.3% |
| O=C1Nc2c(Br)cc(Br)cc2C1=Cc1cc(O)c(O)c(Br)c1 [10723/A04] | 27.2% |
| O=C1Nc2ccc(CCCl)cc2C1=Cc1ccc(C(F)(F)F)cc1 [10722/G11] | 0.6% |
| Cn1cccc1C=C1C(=O)Nc2ccc(S(=O)(=O)Nc3ccc(C(F)(F)F)cc3)cc21 [10717/E04] | 6.1% |
| CNS(=O)(=O)c1ccc2c(c1)C(=Cc1ccc(O)cc1O)C(=O)N2 [10723/D08] | -4.5% |
| CC(C)(C)c1cc(C=C2C(=O)Nc3c(Br)cc(Br)cc32)c(O)c(C(C)(C)C)c1 [10723/A11] | 42.9% |
| COc1ccc(C=C2C(=O)Nc3ccc(S(=O)(=O)Nc4ccc(C(F)(F)F)cc4)cc32)c(O)c1 [10723/E09] | 7.9% |
| COc1cccc(C=C2C(=O)Nc3ccc(S(=O)(=O)Nc4ccc(C(F)(F)F)cc4)cc32)c1O [10723/E03] | 8.7% |
| Cc1c(Br)ccc2c1C(=Cc1ccccc1Br)C(=O)N2 [10723/C07] | 20.9% |
| Cc1c(Br)ccc2c1C(=Cc1ccc(O)c(O)c1O)C(=O)N2 [10723/C02] | 9.6% |
| COc1cccc(C=C2C(=O)Nc3ccc(CCCl)cc32)c1O [10723/G03] | 4.3% |
| COc1ccc(C=C2C(=O)Nc3ccc(Br)c(C)c32)c(O)c1 [10723/C09] | -22.3% |
| O=C1Nc2ccc(CCCl)cc2C1=Cc1csc([N+](=O)[O-])c1 [10722/G09] | 6.1% |

| Structure (SMILES) | Fik Kinase %Inhibition |
| --- | --- |
| O=C1Nc2ccc(I)cc2C1=Cc1ccc(O)c(O)c1O [10723/B02] | -0.3% |
| CC(=O)Oc1ccc(C=C2C(=O)Nc3ccc(I)cc32)cc1OC(C)=O [10723/B05] | -15.4% |
| Cc1cc(C=C2C(=O)Nc3ccc(CCCl)cc32)ccc1O [10723/G06] | 14.1% |
| O=C1Nc2ccc(S(=O)(=O)Nc3ccc(C(F)(F)F)cc3)cc2C1=Cc1cccs1 [10717/E03] | 19.0% |
| O=C1Nc2ccc(S(=O)(=O)N3CCOCC3)cc2C1=Cc1ccc(O)c(O)c1O [10723/F02] | 10.3% |
| Cc1cc(C=C2C(=O)Nc3c(Br)cc(Br)cc32)ccc1O [10723/A06] | 8.6% |
| Cc1ccc(C=C2C(=O)Nc3ccc(S(=O)(=O)Nc4ccc(C(F)(F)F)cc4)cc32)s1 [10717/E07] | 15.3% |
| Cc1cc(C=C2C(=O)Nc3ccc(CCCl)cc32)cc(C)c1O [10722/G07] | 8.0% |
| CNS(=O)(=O)c1ccc2c(c1)C(=Cc1[nH]c(C)c(Br)c1Br)C(=O)N2 [10717/D11] | 11.6% |
| CC(C)(C)c1cc(C=C2C(=O)Nc3ccc(CCCl)cc32)cc([N+](=O)[O-])c1O [10722/G02] | 15.1% |
| O=C1Nc2ccc(S(=O)(=O)Nc3ccc(C(F)(F)F)cc3)cc2C1=Cc1ccc(O)cc1O [10723/E08] | -0.4% |
| O=C1Nc2c(Br)cc(Br)cc2C1=Cc1ccccc1Br [10723/A07] | -6.1% |
| COc1cccc(C=C2C(=O)Nc3ccc(I)cc32)c1O [10723/B03] | 7.1% |
| Cc1c(Br)ccc2c1C(=Cc1ccc(O)cc1O)C(=O)N2 [10723/C08] | -35.5% |
| COc1cccc(C=C2C(=O)Nc3ccc(S(=O)(=O)N4CCOCC4)cc32)c1O [10723/F03] | 4.4% |
| Cc1cc(C=C2C(=O)Nc3ccc(S(=O)(=O)Nc4ccc(C(F)(F)F)cc4)cc32)ccc1O [10723/E06] | 19.3% |
| CC(=O)Oc1ccc(C=C2C(=O)Nc3ccc(S(=O)(=O)Nc4ccc(C(F)(F)F)cc4)cc32)cc1OC(C)=O [10723/E05] | 8.9% |
| O=C1Nc2ccc(I)cc2C1=Cc1ccccc1Br [10723/B07] | 6.5% |
| O=C1Nc2ccc(CCCl)cc2C1=Cc1c(O)cc(O)cc1O [10722/G03] | 5.3% |
| O=C1Nc2ccc(CCCl)cc2C1=Cc1ccc([N+](=O)[O-])s1 [10722/G04] | 7.2% |
| CCCCN(CCCC)c1ccc(C=C2C(=O)Nc3ccc(CCCl)cc32)cc1 [10722/G10] | -1.7% |
| O=C1Nc2ccc(S(=O)(=O)Nc3ccc(C(F)(F)F)cc3)cc2C1=Cc1c[nH]c2ccccc12 [10717/E06] | 7.5% |
| Cc1c(Br)ccc2c1C(=Cc1cc(C(C)(C)C)cc(C(C)(C)C)c1O)C(=O)N2 [10723/C11] | 9.5% |
| CC(=O)Oc1ccc(C=C2C(=O)Nc3ccc(Br)c(C)c32)cc1OC(C)=O [10723/C05] | 5.6% |
| CNS(=O)(=O)c1ccc2c(c1)C(=Cc1cc(C(C)(C)C)cc(C(C)(C)C)c1O)C(=O)N2 [10723/D11] | 14.8% |
| Cc1cc(C=C2C(=O)Nc3ccc(Br)c(C)c32)ccc1O [10723/C06] | 17.8% |
| CNS(=O)(=O)c1ccc2c(c1)C(=Cc1cccc(Br)c1)C(=O)N2 [10723/D10] | 6.5% |

| Structure (SMILES) | Fik Kinase %Inhibition |
| --- | --- |
| O=C1Nc2ccc(I)cc2C1=Cc1cccc(Br)c1 [10723/B10] | 5.8% |
| CC(C)(C)c1cc(C=C2C(=O)Nc3ccc(S(=O)(=O)Nc4ccc(C(F)(F)F)cc4)cc32)c(O)c(C(C)(C)C)c1 [10723/E11] | 8.9% |
| O=C1Nc2ccc(CCCl)cc2C1=Cc1ccc(F)cc1F [10722/G06] | 7.4% |
| Cc1c(Br)ccc2c1C(=Cc1cc(O)c(O)c(Br)c1)C(=O)N2 [10723/C04] | 8.8% |
| Cc1cc(C=C2C(=O)Nc3ccc(I)cc32)ccc1O [10723/B06] | 31.8% |
| CNS(=O)(=O)c1ccc2c(c1)C(=Cc1ccc(O)c(O)c1O)C(=O)N2 [10723/D02] | 2.0% |
| CC(=O)Oc1ccc(C=C2C(=O)Nc3c(Br)cc(Br)cc32)cc1OC(C)=O [10723/A05] | -17.8% |
| O=C1Nc2ccc(CCCl)cc2C1=Cc1ccc(O)cc1O [10723/G08] | -22.9% |
| CC(=O)Oc1ccc(C=C2C(=O)Nc3ccc(CCCl)cc32)cc1OC(C)=O [10723/G05] | -9.4% |
| O=C1Nc2ccc(I)cc2C1=Cc1ccc(O)cc1O [10723/B08] | 1.0% |
| COc1ccc(C=C2C(=O)Nc3c(Br)cc(Br)cc32)c(O)c1 [10723/A09] | -1.0% |
| O=C1Nc2ccc(CCCl)cc2C1=Cc1cc(O)c(O)c(Br)c1 [10723/G04] | 8.7% |
| O=C1Nc2ccc(S(=O)(=O)Nc3ccc(C(F)(F)F)cc3)cc2C1=Cc1ccc(Br)cc1 [10717/E08] | 13.2% |
| CNS(=O)(=O)c1ccc2c(c1)C(=Cc1ccccc1Br)C(=O)N2 [10723/D07] | 15.8% |
| CNS(=O)(=O)c1ccc2c(c1)C(=Cc1cc(O)c(O)c(Br)c1)C(=O)N2 [10723/D04] | 15.2% |
| COc1ccc(C=C2C(=O)Nc3ccc(CCCl)cc32)c(O)c1 [10723/G09] | -1.8% |
| O=C1Nc2ccc(CCCl)cc2C1=Cc1ccc(O)c(O)c1O [10723/G02] | -1.6% |
| O=C1Nc2ccc(CCCl)cc2C1=Cc1ccccc1Br [10723/G07] | 14.2% |
| CC(C)(C)c1cc(C=C2C(=O)Nc3ccc(CCCl)cc32)cc(Cl)c1O [10722/G08] | 8.2% |
| O=C1Nc2ccc(CCCl)cc2C1=Cc1ccc(C(=O)O)cc1 [10722/G05] | 10.8% |
| O=C1Nc2ccc(S(=O)(=O)Nc3ccc(C(F)(F)F)cc3)cc2C1=Cc1ccccc1Br [10723/E07] | 17.4% |
| O=C1Nc2c(Br)cc(Br)cc2C1=Cc1ccc(O)c(O)c1O [10723/A02] | -5.5% |
| CNS(=O)(=O)c1ccc2c(c1)C(=Cc1ccc(OC(C)=O)c(OC(C)=O)c1)C(=O)N2 [10723/D05] | -6.1% |
| O=C1Nc2ccc(S(=O)(=O)N3CCOCC3)cc2C1=Cc1cc(O)c(O)c(Br)c1 [10723/F04] | 12.3% |
| O=C1Nc2ccc(S(=O)(=O)Nc3ccc(C(F)(F)F)cc3)cc2C1=Cc1cc(O)c(O)c(Br)c1 [10723/E04] | 30.7% |
| O=C1Nc2ccc(S(=O)(=O)Nc3ccc(C(F)(F)F)cc3)cc2C1=Cc1ccc(F)cc1 [10717/E05] | 13.2% |
